Counter-ions that a name gives are not always drawn.
Key:
[1] = target: Human indoleamine 2,3-dioxygenase1 (hIDO1) (Homo sapiens (Human), UniProt P14902); assay: In-vitro IDO1 enzyme assay (conversion of L-tryptophan to KYN); type: biochemical; conditions: read-out: IC50 (IDO1) Enz
In short: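 Kynurenine formation quantified by HPLC absorbance at 360 nm or LC/MS/MS after TCA quench and 15 min at 65 °C. Reaction: 10 nM N-His hIDO1, 30 μM tryptophan, ascorbate/methylene blue/catalase, pH 6.5 phosphate buffer, 37 °C for 30 min. Inhibition relative to 1% DMSO vehicle, fitted to IC50.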

IDO1 in HeLa cells = IDO1 in HeLa cells (Homo sapiens (Human), UniProt P14902); assay: HeLa cell based IDO1 assay (IFNγ-induced, KYN in supernatant)
Sequence of IDO1 in HeLa cells (P14902 whole entry): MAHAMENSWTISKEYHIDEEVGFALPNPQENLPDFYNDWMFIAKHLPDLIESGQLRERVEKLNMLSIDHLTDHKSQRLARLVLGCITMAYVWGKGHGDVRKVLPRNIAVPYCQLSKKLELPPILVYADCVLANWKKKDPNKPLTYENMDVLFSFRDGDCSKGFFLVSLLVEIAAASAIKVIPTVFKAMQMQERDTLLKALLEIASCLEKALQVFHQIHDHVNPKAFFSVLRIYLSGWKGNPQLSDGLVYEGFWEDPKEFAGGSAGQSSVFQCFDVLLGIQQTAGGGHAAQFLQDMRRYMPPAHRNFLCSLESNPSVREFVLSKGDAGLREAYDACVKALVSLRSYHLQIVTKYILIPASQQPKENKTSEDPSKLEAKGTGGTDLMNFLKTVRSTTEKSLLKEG
Description: HeLa cells were obtained from ATCC and maintained in DMEM supplemented with sodium bicarbonate (2.1 g/L), HEPES (4.1 g/L), L-glutamine (2 mM), non-essential amino acid (84 mg/L) and fetal bovine serum (10% FBS) and maintained at 95% humidity and 5% CO2 in a 37° C. incubator. Unless otherwise stated, all materials were procured from Sigma. Upon incubation with gamma-interferon (IFNγ ), HeLa cells express IDO1, which catalyzes the formation of N-formyl kynurenine from tryptophan present in growth medium. The assay was performed as follows:
Cells were plated in medium (300 μL) at a density of 0.1 million per well of a 48 well plate and hIDO1 was induced by overnight treatment with IFNγ (50 ng/mL) (Peprotech, USA). The following day, cells were washed to remove IFNγ and were incubated with specific concentrations of test compounds (typically 10 μM to 1 nM, final volume 300 μL) in Hanks Balanced Salt Solution (HBSS) containing 80 μM L-tryptophan. Following incubation, supernatant (150 μL) was transferred to a 96 well plate into which 30%TCA (304) was added and the contents further incubated at 65° C. for 15 min to fully convert N-formylkynurenine to kynurenine. The reaction mixture was then centrifuged to remove sediments and the KYN in the supernatant was estimated by UV-visible absorption spectroscopy at 360 nm using a Waters HPLC system fitted with a C-18 column. (Xiangdong Liu et al. Blood 2010, Vol-117, 3520-30; Sono described above).
Percent inhibition at each concentration of test compounds was determined by estimating the decrease in KYN with reference to the reaction control with 1% DMSO vehicle. Data were analyzed using nonlinear regression to generate IC50 values using Graph Pad Prism® 5.

[2] = target: Human TDO (hTDO)-transfected CHO-K1 cells (Homo sapiens (Human), UniProt P48775); assay: CHO-K1 cell based TDO assay; conditions: hTDO cellular assay
Sequence of Human TDO (hTDO)-transfected CHO-K1 cells (P48775 whole entry): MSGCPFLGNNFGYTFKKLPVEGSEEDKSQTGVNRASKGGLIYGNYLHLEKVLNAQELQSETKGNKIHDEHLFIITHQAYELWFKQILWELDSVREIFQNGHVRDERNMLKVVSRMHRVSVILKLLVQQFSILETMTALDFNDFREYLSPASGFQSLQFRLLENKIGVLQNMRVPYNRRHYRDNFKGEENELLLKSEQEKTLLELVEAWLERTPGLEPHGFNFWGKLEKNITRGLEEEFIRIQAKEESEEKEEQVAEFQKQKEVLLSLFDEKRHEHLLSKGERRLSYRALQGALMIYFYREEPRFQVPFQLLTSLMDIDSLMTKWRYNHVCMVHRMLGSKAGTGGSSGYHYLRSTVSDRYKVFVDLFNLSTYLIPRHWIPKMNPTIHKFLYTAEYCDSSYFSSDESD
In short: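 Kynurenine output was read by LC/MS/MS after TCA precipitation and 15 min at 65° C. Before that, CHO-K1 cells stably carrying human TDO2 were incubated 2 h with compounds (typically 31 μM to 10 nM) and 80 μM L-tryptophan in HBSS. Decrease versus DMSO vehicle gave percent inhibition, then IC50.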

Sequence of Human indoleamine 2,3-dioxygenase1 (hIDO1) (P14902 whole entry): as the sequence (P14902 whole entry) above

| Molecule | IC50 [1] | IC50 (IDO1 in HeLa cells) | IC50 [2] |
| --- | --- | --- | --- |
| Cc1cc(-c2cccc3c(Nc4cccc(Cl)c4)c(N)sc23)ccn1 [Compound 248, N^3-(3-Chlorophenyl)-7-(2-methylpyridin-4-yl)benzo[b]thiophene-2,3-diamine] | < 200 nM | < 200 nM | 500 to 2000 nM |
| Cc1cc(-c2nccc3c(Nc4ccccc4)c(N)oc23)ccn1 [Compound 239, 7-(2-Methylpyridin-4-yl)-N^3-phenylfuro[2,3-c]pyridine-2,3-diamine] | < 200 nM | < 200 nM | < 500 nM |
| N#Cc1nccc2c(Nc3cc(F)cc(F)c3)c(N)oc12 [Compound 186, 2-Amino-3-((3,5-difluorophenyl)amino)furo[2,3-c]pyridine-7-carbonitrile] | > 1000 nM | > 1000 nM | 500 to 2000 nM |
| Nc1sc2ccccc2c1Nc1ccc(Cl)c(C(F)(F)F)c1 [Compound 124, N^3-(4-Chloro-3-(trifluoromethyl)phenyl)benzo[b]thiophene-2,3-diamine] | < 200 nM | < 200 nM | > 2000 nM |
| Cc1cc(-c2nccc3c(Nc4ccc(F)c(C(F)(F)F)c4)c(N)oc23)ccn1 [Compound 205, N^3-(4-fluoro-3-(trifluoromethyl)phenyl)-7-(2-methylpyridin-4-yl)furo[2,3-c]pyridine-2,3-diamine] | < 200 nM | < 200 nM | 500 to 2000 nM |
| Nc1oc2c(N(c3ccccc3)c3ccccc3)nccc2c1Nc1ccc(F)c(Cl)c1 [Compound 200, N^3-(3-Chloro-4-fluorophenyl)-N^7,N^7-diphenylfuro[2,3-c]pyridine-2,3,7-triamine] | 200 to 1000 nM | < 200 nM | > 2000 nM |
| CCc1ccccc1Nc1c(N)sc2ccccc12 [Compound 232, N^3-(2-Ethylphenyl)benzo[b]thiophene-2,3-diamine hydrochloride] | > 1000 nM | > 1000 nM | > 2000 nM |
| C#Cc1cccc(Nc2c(N)sc3ccccc23)c1 [Compound 137, N^3-(3-Ethynylphenyl)-1-benzothiophene-2,3-diamine] | 200 to 1000 nM | < 200 nM | > 2000 nM |
| 2-Amino-3-((3-chloro-4-fluorophenyl)amino)furo[2,3-c]pyridine-7-carbonitrile [Compound 106] | > 1000 nM | > 1000 nM | 500 to 2000 nM |
| Nc1oc2c(-c3ccncc3)nc(F)cc2c1Nc1ccc(F)c(F)c1 [Compound 188, N^3-(3,4-Difluorophenyl)-5-fluoro-7-(pyridin-4-yl)furo[2,3-c]pyridine-2,3-diamine] | < 200 nM | < 200 nM | 500 to 2000 nM |
| C#Cc1cccc(Nc2c(N)oc3c(CC)nccc23)c1 [Compound 96, 7-Ethyl-N^3-(3-ethynylphenyl)furo[2,3-c]pyridine-2,3-diamine] | < 200 nM | < 200 nM | 500 to 2000 nM |
| Cc1cc(-c2nccc3c(Nc4ccc(F)cc4F)c(N)oc23)ccn1 [Compound 256, N^3-(2,4-Difluorophenyl)-7-(2-methylpyridin-4-yl)furo[2,3-c]pyridine-2,3-diamine] | < 200 nM | < 200 nM | < 500 nM |
| CCCc1nccc2c(Nc3cccc(C(F)(F)F)c3)c(N)oc12 [Compound 78, 7-Propyl-N^3-(3-(trifluoromethyl)phenyl)furo[2,3-c]pyridine-2,3-diamine] | < 200 nM | < 200 nM | > 2000 nM |
| Cc1cc(-c2nc(F)cc3c(Nc4ccc(F)c(F)c4)c(N)oc23)ccn1 [Compound 246, N^3-(3,4-Difluorophenyl)-5-fluoro-7-(2-methylpyridin-4-yl)furo[2,3-c]pyridine-2,3-diamine] | < 200 nM | < 200 nM | 500 to 2000 nM |
| Cc1ccc(Nc2c(N)oc3cnccc23)cc1C [Compound 13, N^3-(3,4-Dimethylphenyl)furo[2,3-c]pyridine-2,3-diamine] | 200 to 1000 nM | < 200 nM | 500 to 2000 nM |
| Nc1oc2cnccc2c1Nc1ccc(F)c(OC(F)(F)F)c1 [Compound 62, N^3-(4-Fluoro-3-(trifluoromethoxy)phenyl)furo[2,3-c]pyridine-2,3-diamine] | 200 to 1000 nM | < 200 nM | > 2000 nM |
| Nc1oc2cnccc2c1Nc1ccccc1Cl [Compound 4, N^3-(2-Chlorophenyl)furo[2,3-c]pyridine-2,3-diamine] | > 1000 nM | < 200 nM | > 2000 nM |

Other lines, results leading:

| IC50 [1] | IC50 (IDO1 in HeLa cells) | IC50 [2] | Molecule |
| --- | --- | --- | --- |
| < 200 nM | 200 to 1000 nM | > 2000 nM | Nc1oc2c(-c3cc(Cl)cc(Cl)c3)nccc2c1Nc1ccc(F)c(Cl)c1 [Compound 258, N^3-(3-Chloro-4-fluorophenyl)-7-(3,5-dichlorophenyl)furo[2,3-c]pyridine-2,3-diamine] |
| < 200 nM | < 200 nM | 500 to 2000 nM | Nc1oc2c(/C=C/c3ccccc3)nccc2c1Nc1ccc(F)c(Cl)c1 [Compound 280, N^3-(3-Chloro-4-fluorophenyl)-7-styrylfuro[2,3-c]pyridine-2,3-diamine] |
| < 200 nM | < 200 nM | > 2000 nM | CCCCNC(=O)c1cc(-c2nccc3c(Nc4ccc(F)c(Cl)c4)c(N)oc23)ccn1 [Compound 250, 4-(2-Amino-3-((3-chloro-4-fluorophenyl)amino)furo[2,3-c]pyridin-7-yl)-N-butylpicolinamide] |
| < 200 nM | < 200 nM | 500 to 2000 nM | Nc1oc2c(-c3ccnc(C(=O)N4CCOCC4)c3)nccc2c1Nc1ccc(F)c(Cl)c1 [Compound 272, (4-(2-Amino-3-((3-chloro-4-fluorophenyl)amino)furo[2,3-c]pyridin-7-yl)pyridin-2-yl)(morpholino)methanone] |
| < 200 nM | < 200 nM | 500 to 2000 nM | Nc1oc2c(F)nc(F)cc2c1Nc1ccc(F)c(Cl)c1 [Compound 190, N^3-(3-Chloro-4-fluorophenyl)-5,7-difluorofuro[2,3-c]pyridine-2,3-diamine] |
| < 200 nM | < 200 nM | 500 to 2000 nM | Cc1cc(C)cc(-c2nccc3c(Nc4ccc(F)c(Cl)c4)c(N)oc23)c1 [Compound 277, N^3-(3-Chloro-4-fluorophenyl)-7-(3,5-dimethylphenyl)furo[2,3-c]pyridine-2,3-diamine] |
| < 200 nM | < 200 nM | > 2000 nM | CC(C)CNC(=O)c1cc(-c2nccc3c(Nc4ccc(F)c(Cl)c4)c(N)oc23)ccn1 [Compound 252, 4-(2-Amino-3-((3-chloro-4-fluorophenyl)amino)furo[2,3-c]pyridin-7-yl)-N-isobutylpicolinamide] |
| < 200 nM | < 200 nM | > 2000 nM | Nc1oc2c(-c3ccnc(C(F)(F)F)c3)nccc2c1Nc1ccc(F)c(Cl)c1 [Compound 268, N^3-(3-Chloro-4-fluorophenyl)-7-(2-(trifluoromethyl)pyridin-4-yl)furo[2,3-c]pyridine-2,3-diamine] |
| < 200 nM | < 200 nM | 500 to 2000 nM | Cc1ccc(Nc2c(N)oc3cnccc23)cc1Cl [Compound 33, N^3-(3-Chloro-4-methylphenyl)furo[2,3-c]pyridine-2,3-diamine] |
| < 200 nM | < 200 nM | < 500 nM | Nc1oc2c(-c3ccncc3)nccc2c1Nc1cccc(Cl)c1 [Compound 217, N^3-(3-Chlorophenyl)-7-(pyridin-4-yl)furo[2,3-c]pyridine-2,3-diamine] |
| < 200 nM | < 200 nM | 500 to 2000 nM | N#Cc1nccc2c(Nc3ccc(F)c(C(F)(F)F)c3)c(N)oc12 [Compound 183, 2-Amino-3-((4-fluoro-3-(trifluoromethyl)phenyl)amino)furo[2,3-c]pyridine-7-carbonitrile] |
| < 200 nM | < 200 nM | < 500 nM | Nc1oc2c(I)nccc2c1Nc1ccc(F)c(Cl)c1 [Compound 153, N^3-(3-Chloro-4-fluorophenyl)-7-iodofuro[2,3-c]pyridine-2,3-diamine] |
| < 200 nM | < 200 nM | > 2000 nM | Cc1cc(-c2nccc3c(Nc4ccc(F)c(Cl)c4)c(N)oc23)cc(C)n1 [Compound 164, N^3-(3-Chloro-4-fluorophenyl)-7-(2,6-dimethylpyridin-4-yl)furo[2,3-c]pyridine-2,3-diamine] |

— patent US10294212B2 (CURADEV PHARMA PRIVATE LTD., priority 2013, dated 2019)
